Calls of active or inactive are those of the source. No cut-off for these calls is given here.
Legend:
[1] = target: Transcription factor p65 (Homo sapiens) (UniProt Q04206); experiment: Inhibition of DNA binding activity of full-length recombinant NF-kappaB p65 Rel subunit at 10 uM by EMSA
[2] = Inhibition of DNA binding activity of NF-kappaB p65 (1-325) Rel subunit at 20 uM by EMSA
[3] = Binding affinity to NF-kappaB p65 (1-325) Rel subunit at 100 uM by surface plasmon resonance analysis
[4] = test system: Transcription factor p65 (Homo sapiens), Q04206 [C38S]; experiment: Inhibition of DNA binding activity of NF-kappaB p65 (1-325) C38S mutant by EMSA
Sequence of Transcription factor p65 (Homo sapiens), Q04206 [C38S] (Q04206 whole entry C38S): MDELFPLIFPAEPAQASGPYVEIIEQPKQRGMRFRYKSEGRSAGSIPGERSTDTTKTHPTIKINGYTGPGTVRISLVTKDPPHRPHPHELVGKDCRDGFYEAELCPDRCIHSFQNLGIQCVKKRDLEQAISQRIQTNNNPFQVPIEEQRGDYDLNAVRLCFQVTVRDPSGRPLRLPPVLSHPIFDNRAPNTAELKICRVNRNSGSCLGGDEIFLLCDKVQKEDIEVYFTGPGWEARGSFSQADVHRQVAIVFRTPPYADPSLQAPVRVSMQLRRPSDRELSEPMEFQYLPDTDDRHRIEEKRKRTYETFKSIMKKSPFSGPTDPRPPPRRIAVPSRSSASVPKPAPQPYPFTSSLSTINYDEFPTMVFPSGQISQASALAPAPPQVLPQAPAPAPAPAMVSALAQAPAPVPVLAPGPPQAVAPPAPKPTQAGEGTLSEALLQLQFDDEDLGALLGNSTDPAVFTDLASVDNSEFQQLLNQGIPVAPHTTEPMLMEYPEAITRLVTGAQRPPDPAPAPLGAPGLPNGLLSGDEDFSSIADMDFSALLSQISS

[5] = test system: Transcription factor p65 (Homo sapiens), Q04206 [C120S]; experiment: Inhibition of DNA binding activity of NF-kappaB p65 (1-325) C120S mutant by EMSA
Sequence of Transcription factor p65 (Homo sapiens), Q04206 [C120S] (Q04206 whole entry C120S): as the sequence (Q04206 whole entry C38S) above, with S38C, C120S counted along it

[6] = test system: Transcription factor p65 (Homo sapiens), Q04206 [C38S]; experiment: Inhibition of DNA binding activity of NF-kappaB p65 (1-325) C38S mutant by MALDI-TOF MS analysis
[7] = test system: Transcription factor p65 (Homo sapiens), Q04206 [C120S]; experiment: Inhibition of DNA binding activity of NF-kappaB p65 (1-325) C120S mutant by MALDI-TOF MS analysis
[8] = target: T1, Nuclear factor NF-kappa-B p105 subunit (Homo sapiens) (UniProt P19838); experiment: Inhibition of DNA binding activity of wild type NF-kappaB p50
T1 sequence (whole entry): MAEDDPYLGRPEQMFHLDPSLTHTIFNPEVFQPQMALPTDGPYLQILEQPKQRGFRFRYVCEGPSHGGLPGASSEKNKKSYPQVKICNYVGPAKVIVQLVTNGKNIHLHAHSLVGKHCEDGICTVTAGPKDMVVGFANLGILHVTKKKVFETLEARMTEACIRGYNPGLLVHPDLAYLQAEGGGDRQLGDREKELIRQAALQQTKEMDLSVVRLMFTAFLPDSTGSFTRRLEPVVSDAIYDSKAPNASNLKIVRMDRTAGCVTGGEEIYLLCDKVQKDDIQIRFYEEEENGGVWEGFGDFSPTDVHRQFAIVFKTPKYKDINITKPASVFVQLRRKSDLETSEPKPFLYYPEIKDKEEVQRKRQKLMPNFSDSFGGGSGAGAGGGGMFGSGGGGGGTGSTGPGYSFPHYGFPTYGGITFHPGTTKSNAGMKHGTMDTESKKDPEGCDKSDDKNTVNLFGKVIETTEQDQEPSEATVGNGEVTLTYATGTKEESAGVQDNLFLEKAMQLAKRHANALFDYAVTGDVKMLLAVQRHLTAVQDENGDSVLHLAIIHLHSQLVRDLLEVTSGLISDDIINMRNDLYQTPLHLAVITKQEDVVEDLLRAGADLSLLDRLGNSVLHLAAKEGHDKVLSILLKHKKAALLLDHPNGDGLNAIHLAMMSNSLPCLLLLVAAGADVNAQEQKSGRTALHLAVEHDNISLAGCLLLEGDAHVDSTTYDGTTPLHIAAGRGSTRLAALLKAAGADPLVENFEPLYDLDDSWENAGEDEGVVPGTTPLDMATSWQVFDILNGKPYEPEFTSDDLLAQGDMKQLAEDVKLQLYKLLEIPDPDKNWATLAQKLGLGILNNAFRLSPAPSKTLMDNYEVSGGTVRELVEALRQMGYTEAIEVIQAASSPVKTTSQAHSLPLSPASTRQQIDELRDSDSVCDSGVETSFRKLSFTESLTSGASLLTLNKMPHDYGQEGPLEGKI

[9] = Inhibition of DNA binding activity of NF-kappaB p50 C62S mutant
[10] = target: T1, Nuclear factor NF-kappa-B p105 subunit (Homo sapiens); experiment: Inhibition of DNA binding activity of wild type NF-kappaB p50 by MALDI-TOF MS analysis
[11] = Inhibition of DNA binding activity of NF-kappaB p50 C62S mutant by MALDI-TOF MS analysis
[12] = Inhibition of DNA binding activity of wild type NF-kappaB cRel (1-307)
[13] = test system: T2, Proto-oncogene c-Rel (Homo sapiens), Q04864 [C27S]; experiment: Inhibition of DNA binding activity of NF-kappaB cRel (1-307) C27S mutant
T2 sequence (whole entry): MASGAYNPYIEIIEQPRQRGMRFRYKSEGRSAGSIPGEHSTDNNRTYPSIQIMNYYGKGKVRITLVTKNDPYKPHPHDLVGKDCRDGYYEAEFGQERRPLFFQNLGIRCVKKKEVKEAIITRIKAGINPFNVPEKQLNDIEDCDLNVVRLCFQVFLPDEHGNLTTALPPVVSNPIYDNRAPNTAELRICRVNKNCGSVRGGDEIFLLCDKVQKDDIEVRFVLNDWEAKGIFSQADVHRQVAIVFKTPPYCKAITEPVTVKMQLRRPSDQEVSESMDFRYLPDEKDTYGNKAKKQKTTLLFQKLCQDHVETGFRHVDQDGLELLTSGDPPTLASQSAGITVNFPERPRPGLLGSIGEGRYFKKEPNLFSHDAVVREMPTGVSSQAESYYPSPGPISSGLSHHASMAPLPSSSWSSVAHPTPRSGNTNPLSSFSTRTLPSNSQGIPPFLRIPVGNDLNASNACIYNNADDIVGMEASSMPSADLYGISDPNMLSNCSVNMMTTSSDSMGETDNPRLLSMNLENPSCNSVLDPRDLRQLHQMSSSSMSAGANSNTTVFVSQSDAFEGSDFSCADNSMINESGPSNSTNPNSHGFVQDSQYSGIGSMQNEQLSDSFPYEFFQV

[14] = Inhibition of DNA binding activity of wild type NF-kappaB cRel (1-307) by MALDI-TOF MS analysis
[15] = test system: T2, Proto-oncogene c-Rel (Homo sapiens), Q04864 [C27S]; experiment: Inhibition of DNA binding activity of NF-kappaB cRel (1-307) C27S mutant by MALDI-TOF MS analysis
[16] = target: T3, Nuclear factor NF-kappa-B p100 subunit (Homo sapiens) (UniProt Q00653); experiment: Inhibition of DNA binding activity of NF-kappaB p52
T3 sequence (whole entry): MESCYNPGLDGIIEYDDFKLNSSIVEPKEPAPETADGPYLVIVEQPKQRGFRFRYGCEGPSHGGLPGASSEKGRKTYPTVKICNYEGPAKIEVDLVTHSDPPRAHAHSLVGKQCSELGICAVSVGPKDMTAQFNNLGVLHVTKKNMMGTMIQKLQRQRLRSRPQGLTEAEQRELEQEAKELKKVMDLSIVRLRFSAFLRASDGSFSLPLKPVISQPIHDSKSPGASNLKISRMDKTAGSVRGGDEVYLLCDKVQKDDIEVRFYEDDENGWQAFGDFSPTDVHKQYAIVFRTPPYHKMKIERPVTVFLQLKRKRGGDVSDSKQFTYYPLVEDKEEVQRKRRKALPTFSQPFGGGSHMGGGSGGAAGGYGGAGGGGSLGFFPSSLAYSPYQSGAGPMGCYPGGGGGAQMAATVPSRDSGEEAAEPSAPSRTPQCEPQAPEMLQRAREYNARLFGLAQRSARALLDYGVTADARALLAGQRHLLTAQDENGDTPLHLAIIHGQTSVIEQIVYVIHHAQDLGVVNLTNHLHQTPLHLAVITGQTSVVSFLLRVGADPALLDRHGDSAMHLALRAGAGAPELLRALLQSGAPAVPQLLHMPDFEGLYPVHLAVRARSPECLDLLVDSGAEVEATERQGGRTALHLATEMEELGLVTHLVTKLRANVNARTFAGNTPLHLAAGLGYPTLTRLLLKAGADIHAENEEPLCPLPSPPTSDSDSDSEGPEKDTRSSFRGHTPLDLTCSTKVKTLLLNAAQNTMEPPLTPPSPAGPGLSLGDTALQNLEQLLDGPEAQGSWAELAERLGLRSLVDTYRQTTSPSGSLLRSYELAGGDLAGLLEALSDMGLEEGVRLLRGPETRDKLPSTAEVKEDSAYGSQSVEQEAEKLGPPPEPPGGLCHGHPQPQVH

[17] = target: Transcription factor p65 (Homo sapiens) (UniProt Q04206); experiment: Inhibition of TNF-alpha-stimulated DNA binding activity of wild type NF-kappaB p65 expressed in HeLa cells at 10 ug/mL by EMSA; type: cell-based
[18] = test system: Transcription factor p65 (Homo sapiens), Q04206 [C38S]; experiment: Inhibition of TNF-alpha-stimulated DNA binding activity of NF-kappaB p65 C38S mutant expressed in HeLa cells at 10 ug/mL hrs by EMSA; type: cell-based
HeLa [19] = experiment: Decrease of TNF-alpha-stimulated wild type NF-kappaB p65 level in human HeLa cell nucleus at 10 ug/mL by Western blot analysis; type: functional, cell-based
HeLa [20] = experiment: Decrease of TNF-alpha-stimulated NF-kappaB p65 C38S mutant level in human HeLa cell nucleus at 10 ug/mL by Western blot analysis; type: functional, cell-based
[21] = Inhibition of DNA binding activity of NF-kappaB p50 C144S mutant by MALDI-TOF MS analysis
HeLa [22] = experiment: Decrease of TNF-alpha-stimulated endogenous NF-kappaB p65 level in human HeLa cell nucleus at 10 ug/mL by Western blot analysis; type: functional, cell-based
[23] = test system: Transcription factor p65 (Homo sapiens), Q04206 [C38S]; experiment: Inhibition of DNA binding activity of full-length recombinant NF-kappaB p65 Rel subunit C38S mutant at 10 uM by EMSA
Albumin = Albumin (Bos taurus, UniProt P02769); experiment: Binding affinity to bovine serum albumin; type: ADME; conditions: cattle, isolated protein
Sequence of Albumin (P02769 whole entry): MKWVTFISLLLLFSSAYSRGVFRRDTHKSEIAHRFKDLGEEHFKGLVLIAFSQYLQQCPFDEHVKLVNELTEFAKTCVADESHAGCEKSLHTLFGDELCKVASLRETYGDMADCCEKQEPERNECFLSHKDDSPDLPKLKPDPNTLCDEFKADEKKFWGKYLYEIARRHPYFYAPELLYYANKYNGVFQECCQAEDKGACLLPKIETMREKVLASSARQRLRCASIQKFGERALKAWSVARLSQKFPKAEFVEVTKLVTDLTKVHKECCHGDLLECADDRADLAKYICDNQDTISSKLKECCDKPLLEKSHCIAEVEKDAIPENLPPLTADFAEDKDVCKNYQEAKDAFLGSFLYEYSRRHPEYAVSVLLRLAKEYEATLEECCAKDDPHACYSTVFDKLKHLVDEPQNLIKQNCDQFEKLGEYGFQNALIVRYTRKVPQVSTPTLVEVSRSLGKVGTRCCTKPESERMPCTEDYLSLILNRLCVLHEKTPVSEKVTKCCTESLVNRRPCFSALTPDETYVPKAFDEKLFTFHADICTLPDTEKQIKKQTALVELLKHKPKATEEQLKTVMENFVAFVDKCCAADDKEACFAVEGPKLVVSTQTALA

Sequence of Transcription factor p65 (Homo sapiens) (Q04206 whole entry): as the sequence (Q04206 whole entry C38S) above, with S38C counted along it

O=C(NC1=CC(=O)[C@H]2O[C@H]2[C@H]1O)c1ccccc1O [DEHYDROXYMETHYLEPOXYQUINOMICIN]
Activity [1]: inactive | Activity [2]: Active | Activity [3]: Active | Activity [4]: inactive | Activity [5]: Active | Activity [6]: inactive | Activity [7]: Active | Activity [8]: Active | Activity [9]: inactive | Activity [10]: Active | Activity [11]: inactive | Activity [12]: Active | Activity [13]: inactive | Activity [14]: Active | Activity [15]: inactive | Activity [16]: inactive | Activity [17]: Active | Activity [18]: inactive | Activity (HeLa [19]): Active | Activity (HeLa [20]): inactive | Activity [21]: inactive | Activity (HeLa [22]): Active | Activity [23]: inactive | Activity (Albumin): Not Active
